Columns and labels:
muscarinic M1 receptor [1] = biological target: T1, muscarinic M1 receptor (Homo sapiens, UniProt P11229); conditions: literature report; cited from earlier work
T1 sequence (P11229 1-460): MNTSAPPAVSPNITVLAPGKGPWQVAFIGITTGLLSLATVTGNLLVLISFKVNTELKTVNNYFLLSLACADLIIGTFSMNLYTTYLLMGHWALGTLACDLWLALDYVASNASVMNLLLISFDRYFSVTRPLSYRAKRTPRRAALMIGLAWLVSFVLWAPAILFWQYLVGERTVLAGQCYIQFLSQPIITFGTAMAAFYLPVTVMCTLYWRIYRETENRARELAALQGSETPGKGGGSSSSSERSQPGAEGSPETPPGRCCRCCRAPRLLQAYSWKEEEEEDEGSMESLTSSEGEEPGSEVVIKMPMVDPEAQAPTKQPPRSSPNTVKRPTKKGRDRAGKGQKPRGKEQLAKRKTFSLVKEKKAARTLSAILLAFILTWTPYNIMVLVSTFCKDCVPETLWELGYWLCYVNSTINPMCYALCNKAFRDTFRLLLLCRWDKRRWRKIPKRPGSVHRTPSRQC

[2] = cited from earlier work
[3] = Rodent brain penetration study; assay type: in vivo, Male Wistar rats; conditions: male, Wistar, brain and plasma, po; rat, 3 mg/kg, p.o., brain-plasma ratio; read-out: Single dose Rat Brain Penetration (Cb/Cp) at 3 mg/kg, p.o.
Description: Rodent Brain Penetration Study
Male Wistar rats (260±40 grams) were used as experimental animals. Three animals were housed in each cage. Animals were given water and food ad libitum throughout the experiment and maintained on a 12 hours light/dark cycle.
Brain penetration was determined in discrete manner in rats. One day prior to dosing day, male Wistar rats were acclimatized and randomly grouped according to their weight. At each time point (0.50, 1 and 2 hours) n=3 animals were used.
The test compounds were suitably preformulated and administered orally at (free base equivalent) 3 mg/kg. Blood samples were removed via cardiac puncture by using isoflurane anesthesia. The animals were sacrificed to collect brain tissue. Plasma was separated and brain samples were homogenized and stored frozen at −20° C. until analysis. The concentrations of the test compounds in plasma and brain were determined using LC-MS/MS method.
The test compounds were quantified in plasma and brain homogenate by qualified LC-MS/MS method using suitable extraction technique. The test compounds were quantified in the calibration range of 1-500 ng/mL in plasma and brain homogenate. Study samples were analyzed using calibration samples in the batch and quality control samples spread across the batch. Extent of brain-plasma ratio (Cb/Cp) was calculated

Male Wistar rats [4] = assay: Object recognition task model; assay type: in vivo; conditions: rat, 3 mg/kg, p.o.
Description: Object Recognition Task Model
(§1) Male Wistar rats (8-10 weeks old) were used as experimental animals. Four animals were housed in each cage. Animals were kept on 20% food deprivation from a day prior to experimentation. Water was provided ad libitum throughout the experiment. Animals were maintained on a 12 hours light/dark cycle in temperature and humidity controlled room. The experiment was carried out in an circular or square arena made up of acrylic. Rats were habituated to individual arenas for up to 1 hour in the absence of any objects on day 1.
One group of 12 rats received vehicle and another set of animals received test compounds, before familiar (T1) and choice (T2) trials. During the familiarization phase, (T1), the rats were placed individually in the arena for 3 minutes, in which two identical objects (a1 and a2) were positioned 10 cm from the wall. 24 hours after T1, trial for long-term memory test was performed. The same rats were placed in the same arena as they were placed in T1 trial. During the choice phase (T2) rats were allowed to explore the arena for 3 minutes in presence of a copy of familiar object (a3) and one novel object (b). During the T1 and T2 trial, explorations of each object (defined as sniffing, licking, chewing or having moving vibrissae whilst directing the nose towards the object at a distance of less than 1 cm) were recorded using stopwatch.
T1 is the total time spent exploring the familiar objects (a1+a2).
T2 is the total time spent exploring the familiar object and novel object (a3+b).
The object recognition test was performed as described in Behav. Brain Res., 1988, 31, 47-59.

Male Wistar rats [5] = assay: Object recognition task model (combination study); assay type: in vivo; conditions: rat, combination (co-treatment) with donepezil; FIG. 1
Description: Object Recognition Task Model (Combination Study)
The cognition enhancing properties of compounds of this invention were estimated by using this model.
as §1, with “open field” for “circular or square arena”, “arenas (open field)” for “arenas”, “20 minutes” for “up to 1 hour”
One group of 12 rats received vehicle and another set of animals received compound of the formula (I) or Donepezil or compound of formula (I) and Donepezil, before the familiar (T1) and choice (T2) trials. During the familiarization phase, (T1), the rats were placed individually in the arena for 3 minutes, in which two identical objects (a1 and a2) were positioned 10 cm from the wall. 24 hours after T1, trial for long-term memory test was performed. […] During the T1 and T2 trial, explorations of each object (defined as sniffing, licking, chewing or having moving vibrissae whilst directing the nose towards the object at a distance of less than 1 cm) were recorded using stopwatch. […]

[6] = Rodent pharmacokinetic study; assay type: in vivo, Male Wistar rats; conditions: rat
Description: Rodent Pharmacokinetic Study
Male Wistar rats (260±50 grams) were used as experimental animals. Animals were housed individually in polypropylene cage. Two days prior to study, male Wistar rats were anesthetized with isoflurane for surgical placement of jugular vein catheter. Rats were randomly divided for oral (3 mg/kg) and intravenous (1 mg/kg) dosing (n=3/group) and fasted overnight before oral dosing (p.o.). However, rats allocated to intravenous dosing food and water was provided ad libitum.
At pre-determined point, blood was collected through jugular vein and replenished with an equivalent volume of normal saline. Collected blood was transferred into a labeled eppendorf tube containing 10 μL of heparin as an anticoagulant. Typically blood samples were collected at following time points: 0.08, 0.25, 0.5, 1, 2, 4, 6, 8, and 24 hours post dose. Blood was centrifuged at 4000 rpm for 10 minutes. Plasma was separated and stored frozen at −80° C. until analysis. The concentrations of the test compounds were quantified in plasma by qualified LC-MS/MS method using suitable extraction technique. The test compounds were quantified in the calibration range around 1-1000 ng/mL in plasma. Study samples were analyzed using calibration samples in the batch and quality control samples spread across the batch.
Pharmacokinetic parameters Cmax, AUCt, T1/2, Clearance and Bioavailability (F) were calculated by non-compartmental model using standard non-compartmental model by using Phoenix WinNonlin 6.0.4 version Software package.

muscarinic M1 receptor [7] = biological target: T1, muscarinic M1 receptor; assay: Allosteric potency EC50 for muscarinic M1 receptor (CHO pCRE-Luc reporter assay); assay type: cell-based; conditions: in presence of EC20 of acetylcholine; CHO cells, luciferase reporter, 4 hours
Method in brief: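 Stable CHO line with recombinant human M1 and cAMP-response-element luciferase reporter, serum-starved overnight. Test compounds at increasing concentrations added with an EC20 of acetylcholine, 4 h at 37 °C; luminescence read after lysis. EC50 = concentration giving 50% stimulation of luciferase activity in the presence of EC20 acetylcholine.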

[8] = male, Wistar, plasma, intravenous (bolus), 1 mg/kg
[9] = male, Wistar, plasma, oral (gavage), 3 mg/kg

SMILES | Selectivity for muscarinic M1 receptor over the other muscarinic receptor subtypes (muscarinic M1 receptor [1]) | Efficacy in preclinical models of cognition ([2]; Psychopharmacology, 2013, 225(1), 21-30) | Gastrointestinal side effects ([2]; at doses equal to or less than a fivefold margin from the minimum effective dose required to improve cognition) | Kp [3] | Inference (Male Wistar rats [4]) | Exploration time mean ± S.E.M, Familiar object (Male Wistar rats [4]; choice trial 24 hours after T1) [s] | Exploration time mean ± S.E.M, Novel object (Male Wistar rats [4]; choice trial 24 hours after T1) [s] | Procognitive effect in object recognition task (Male Wistar rats [5]) | AUC(0-t) [6, 8] [ng·h/mL] | clearance [6, 8] [mL/min/kg] | half-life [6, 8] [min] | AUC(0-t) [6, 9] [ng·h/mL] | Cmax [6, 9] [ng/mL] | half-life [6, 9] [min] | F ([6]; oral (gavage) 3 mg/kg vs intravenous 1 mg/kg) [%] | EC50 (muscarinic M1 receptor [7]) [nM]
N#CC1(c2ccccn2)CCN(Cc2cc(C(=O)O)c(=O)n3ccccc23)CC1 [PQCA, 1-{[4-cyano-4-(pyridine-2-yl)piperidin-1-yl]methyl}-4-oxo-4H-quinolizine-3-carboxylic acid] | highly selective | efficacious | no gastrointestinal side effects |  |  |  |  |  |  |  |  |  |  |  |  | 
Cn1ccc2c(Cc3ccnc(F)c3)cc(C(=O)N[C@H]3CCCC[C@@H]3O)nc21 [Example 1, N-[(1S,2S)-2-Hydroxycyclohexyl]-4-(2-fluoropyridin-4-ylmethyl)-1-methyl-1H-pyrrolo[2,3-b]pyridine-6-carboxamide] |  |  |  | 0.33 ± 0.02 | Active | 12.67 ± 0.95 | 17.98 ± 1.77 | Procognitive effects were observed | 796 ± 41 | 34 ± 3 | 78 ± 18 | 875 ± 215 | 373 ± 53 | 78 ± 12 | 59 ± 14 | 1480
